Reference: patent US20070207202A1, “PHARMACEUTICAL FORMULATIONS OF A MONOHYDRATE CRYSTAL FORM OF 2-(3-FLUORO-4-HYDROXYPHENYL)-7-VINYL-1,3-BENZOXAZOL-5-OL” (Wyeth, priority 2006, published 2007)

Tests used:
Format in all cases: physicochemical
[1] = Separate long term study of micronized and non-micronized anhydrate (XRPD)
[2] = Dynamic vapor sorption (hygroscopicity); conditions: for DVS gain: 0–90% RH
Description: Dynamic Vapor Sorption (Allentown, Pa.) was used to measure the hygroscopicity of the anhydrate and monohydrate of the invention (see FIGS. 6 and 7). The step conditions were three hours each at 0%, 30%, 52.5%, 75% and 90% RH, two full cycles.

[3] = Medium term stability of crystal form (XRPD and TGA)
Protocol: Samples of monohydrate were stored at room temperature, 56° C., and 70° C. for one week. At room temperature, humidity was maintained at 0% RH. Humidity was not controlled for the higher temperatures.
The samples were analyzed by XRPD and TGA.

[4] = Water solubility of the two crystal forms
[5] = Long term stability of crystal forms (XRPD, TGA, HPLC); conditions: non-micronized, 40° C./75% RH (monohydrate also 40° C. without humidity control), three months
Protocol: Non-micronized samples of monohydrate and anhydrate were stored at 40° C./75% RH for three months. The monohydrate was also stored at 40° C. without humidity control. During the three months, the samples were checked after two weeks, one month, two months, and three months.

[6] = Short term stability of crystal form (XRPD)

Row | crystal form transformation by XRPD ([1]; micronized samples, 25° C./60% RH, three months) | crystal form transformation by XRPD ([1]; micronized samples, 40° C./75% RH, one month) | crystal form transformation by XRPD ([1]; non-micronized samples, 40° C./75% RH) | DVS gain ([2]; listed as anhydrous crystal form) | crystal form stability by XRPD and TGA ([3]; 56° C., humidity not controlled, one week) | crystal form stability by XRPD and TGA ([3]; 70° C., humidity not controlled, 1 day) | crystal form stability by XRPD and TGA ([3]; 70° C., humidity not controlled, 4 days) | crystal form stability by XRPD and TGA ([3]; 70° C., humidity not controlled, 7 days) | crystal form stability by XRPD and TGA ([3]; room temperature, 0% RH, one week) | chemical stability by HPLC [5] | crystal form transformation by XRPD and TGA [5] | crystal form stability by XRPD ([6]; 70° C., one hour) | crystal form stability by XRPD ([6]; 90° C., one half hour) | crystal form stability by XRPD ([6]; 90° C., one hour) | hygroscopicity (DVS weight gain, in words) [2] | DVS gain ([2]; listed as monohydrate crystal form) | Compound | water solubility compared between the two forms (in words) [4]
1 | did not transform to the monohydrate | partially transform to the monohydrate | did not show any obvious transformation | 0.2% gain (0–90% RH) |  |  |  |  |  |  |  |  |  |  |  |  | C=Cc1cc(O)cc2nc(-c3ccc(O)c(F)c3)oc12 [anhydrate, 2-(3-fluoro-4-hydroxyphenyl)-7-vinyl-1,3-benzoxazol-5-ol] | 
2 |  |  |  |  | no obvious dehydration | no obvious hydration | partially dehydrated | mostly dehydrated | no obvious dehydration | chemically stable | did not transform | stable | partially dehydrated | completely dehydrated | largely non-hygroscopic | 0.1% gain (0–90% RH) | C=Cc1cc(O)cc2nc(-c3ccc(O)c(F)c3)oc12 [monohydrate, 2-(3-fluoro-4-hydroxyphenyl)-7-vinyl-1,3-benzoxazol-5-ol] | significantly lower solubility than the anhydrate
